These results are taken from patent US8338411B2, “Compounds” (Sanofi, priority 2007, dated 2012).

For data set [1], the target named is T1, human adenosine A3 receptor (Homo sapiens, UniProt P0DMS8).
T1 construct: host or cells: CHO cells (CHO-hA3), membrane preparation
T1 sequence (P0DMS8 1-318): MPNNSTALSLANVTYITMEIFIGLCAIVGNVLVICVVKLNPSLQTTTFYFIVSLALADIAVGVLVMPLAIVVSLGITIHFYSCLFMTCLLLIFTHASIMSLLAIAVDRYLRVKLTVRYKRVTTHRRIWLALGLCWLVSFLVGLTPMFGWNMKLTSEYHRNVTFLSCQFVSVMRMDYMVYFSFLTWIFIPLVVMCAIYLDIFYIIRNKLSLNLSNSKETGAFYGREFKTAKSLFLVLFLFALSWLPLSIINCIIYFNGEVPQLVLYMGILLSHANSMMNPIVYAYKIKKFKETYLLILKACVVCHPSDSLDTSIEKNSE
In words: Human adenosine A3 receptor binding ([125I]AB-MECA, CHO-hA3 membranes). As to conditions: CHO-hA3 membrane, 0.5 nM [125I]AB-MECA. The method, then: Human Adenosine A3 Receptor Binding
Preparing membrane suspension: ovarium cells of cloned […] hamster expressing human A3 receptor (further: CHO-hA3) are appropriately cultured. Achieving confluent cell layer, the cultivating liquid is removed from the cells by washing them with 37° C. PBS, then the cell are suspended in ice cold PBS, washed 3 times with PBS, centrifuged (1000×g 10 minutes) (Sigma 3K30) and homogenated using teflon homogenizer (B. Braun Potter S) at 1500/min rotation speed, for 15 sec. in the following buffer: 50 mM Tris, 10 mM MgCl2, 1 mM EDTA, pH 8.0. The homogenate is centrifuged (43.000 g, 10 min). The precipitate is suspended in the above buffer, protein concentration 0.1 mg/ml (Bradford method). Aliquots of the membrane preparatum are store at −80° C. hA3-CHO membrane preparation from Perkin Elmer was used alternatively.
Binding protocol: incubate CHO-hA3 membrane preparation (2 μg protein content) in the presence of the test material and 0.5 nM [^125I]AB-MECA (4-amino-3-iodo-benzyl-5′-N-methylcarboxamide-adenosine) (100.000 cpm) in incubation buffer (50 mM Tris, 10 mM MgCl2, 1 mM EDTA, 3 U/mL adenosine deaminase, pH 8.0). Define the non-specific radioligand binding in the presence of 100 μM R-PIA (N^6[L-2-phenylisopropyl]adenosine). Total volume of the reaction is 50 μL for 60 min at room temperature. […] Detect the radioactivity in gamma-counter (1470 Wizard, Wallac). […]
Based on the radioisotope saturation curves using Scatchard analysis (G. Scatchard, Ann. N.Y. Acad. Sci. 51:660, 1949) the dissociation constant (Kd) of the radioligand [^125I]AB-MECA on the CHO-hA3 membrane preparate is determined. From the Kd values, applying the Cheng-Prusoff equation (Y. J. Cheng and W. H. Prusoff, Biochem. Pharmacol. 22:3099, 1973) the affinity constants (Ki) of the test compounds are calculated from their IC50 values.

Data set [2] relates to Ovalbumin induced cell migration. In words: Allergic mouse model (ovalbumin induced cell migration). As to conditions: % inhibition (full), p.o. mice 24 h, 10 mg/kg CMC. The data set is classed as in vivo. The method, then:
Male BalbC mice of 20-25 g body weight are used for the experiments. The animals are first allergized with ovalbumin, then three weeks after the first ovalbumin injection they are involved into the experiment. On the day of the experiment the mice are treated (per os) with the experimental material (or with the vehicle containing no active ingredient), then after a suitable waiting period they are narcotized. After surgical opening of the trachea, 10 microliter of 1% ovalbumin solution is injected into the trachea.
The control group receives vehicle (physiological salt solution) into the trachea. After surgical closing of the trachea and treatment of the wound, the animals are separated and kept under their usual life conditions for 24 h.
After 24 hours the animals are over narcotized, the trachea is opened again and the lung is washed with buffer solution. The buffer solution is centrifuged, the cell sediment is resuspended again, and then the cells are counted. The total cell number is determined and the different leukocytes are sorted on the bases of the morphology. To determine the effectivity of the experimental material, the inhibition % is calculated in comparison to the control group. To determine the significance of the effect, statistical evaluation is carried out.

Data set [3] is described as follows: Solubility. It is filed as physicochemical.

In general, IC50 refers to the concentration needed to halve the response being measured. Read a high IC50 as a need for much substance. What is called solubility is the concentration that dissolves in the medium under given conditions. Read a high solubility as much dissolved substance.

The structures appear in SMILES notation. Values after ≈ are worked out from the molar mass of the structure shown.

The compound `COc1cccc(-c2nc3c(C#N)c(NCc4ccccc4)c4cc(N5CCOCC5)ccc4n3n2)c1` [Example 1, 2-(3-methoxyphenyl)-7-(morpholin-4-yl)-9-benzylamino-10-cyano-s-triazolo[1,5-a]quinoline] came in with an IC50 in data set [1] of 38 nM. Further, in data set [2], the “Inhibition of cell migration” value amounted to 81%. The solubility in data set [3] (pH 1, simulated gastric fluid) is 500 µg/mL (≈ 1020 µM); in data set [3] (pH 6.5, aqueous buffer) it was 0.2 µg/mL (≈ 0.408 µM); in data set [3] (pH 7.5, aqueous buffer), 2 µg/mL (≈ 4.08 µM).
On the same counts, the results for `CN1CCN(c2ccc3c(c2)c(NCc2ccccc2)c(C#N)c2nc(-c4ccccc4)nn23)CC1` [Example 17] are 7.7 nM, 88%, 3000 µg/mL (≈ 6330 µM), 0.5 µg/mL (≈ 1.06 µM) and 5 µg/mL (≈ 10.6 µM).
On the same counts, the results for `CN1CCN(c2ccc3c(c2)c(NCc2ccccc2)c(C#N)c2nc(-c4ccc(F)cc4)nn23)CC1` [Example 18] are 11 nM, 57%, 2500 µg/mL (≈ 5090 µM), 0.5 µg/mL (≈ 1.02 µM) and 13 µg/mL (≈ 26.4 µM).
